Results as given in US20120202690A1, “HERBICIDAL COMPOUNDS” (SYNGENTA LIMITED, priority 2009, published 2012).

What was measured:
Assay type in all cases: in vivo
[1] = tested on: Alopecurus myosuroides (ALOMY); test: Pre-emergence biological efficacy, glasshouse, 1000 g/ha, evaluated after 13 days (100=total damage to plant; 0=no damage to plant); details: Alopecurus myosuroides, 312 h, rate 1,000 g/ha, read-out: Percentage damage caused to weed species, pre-emergence, ALOMY
Procedure, shortened: (§1)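 Test species are sown into pots of standard soil. Plants then grow in the glasshouse under controlled conditions (24/16° C. day/night, 14 hours light, 65% humidity) and receive water twice a day.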

[2] = tested on: Amaranthus retroflexus (AMARE); test: as above; details: Amaranthus retroflexus, 312 h, rate 1,000 g/ha, read-out: Percentage damage caused to weed species, pre-emergence, AMARE
Procedure, shortened: as §1

[3] = tested on: Echinochloa crus-galli (ECHCG); test: as above; details: Echinochloa crus-galli, 312 h, rate 1,000 g/ha, read-out: Percentage damage caused to weed species, pre-emergence, ECHCG
Procedure, shortened: as §1

[4] = tested on: Ipomoea hederaceae (IPOHE); test: as above; details: Ipomoea, 312 h, rate 1,000 g/ha, read-out: Percentage damage caused to weed species, pre-emergence, IPOHE
Procedure, shortened: as §1

Setaria faberi (SETFA) [5] = test: as above; details: Setaria faberi, 312 h, rate 1,000 g/ha, read-out: Percentage damage caused to weed species, pre-emergence, SETFA
Procedure, shortened: as §1

Solanum nigrum (SOLNI) [6] = test: as above; details: Solanum nigrum, 312 h, rate 1,000 g/ha, read-out: Percentage damage caused to weed species, pre-emergence, SOLNI
Procedure, shortened: as §1

[7] = tested on: Alopecurus myosuroides (ALOMY); test: Post-emergence biological efficacy, glasshouse, 500 or 1000 g/ha, evaluated after 13 days (100=total damage to plant; 0=no damage to plant); details: Alopecurus myosuroides, 312 h, rate 1,000 g/ha, read-out: Percentage damage caused to weed species, post-emergence, ALOMY
Procedure, shortened: (§2)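 Standard soil, potted from seed; post-emergence treatment; glasshouse 24/16° C. (day/night), 14 h light, 65% humidity; watering twice daily.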

[8] = tested on: Amaranthus retroflexus (AMARE); test: as above; details: Amaranthus retroflexus, 312 h, rate 1,000 g/ha, read-out: Percentage damage caused to weed species, post-emergence, AMARE
Procedure, shortened: as §2

[9] = tested on: Echinochloa crusgaffi (ECHCG); test: as above; details: Echinochloa, 312 h, rate 1,000 g/ha, read-out: Percentage damage caused to weed species, post-emergence, ECHCG
Procedure, shortened: as §2

[10] = tested on: Ipomoea hederaceae (IPOHE); test: as above; details: Ipomoea, 312 h, rate 1,000 g/ha, read-out: Percentage damage caused to weed species, post-emergence, IPOHE
Procedure, shortened: as §2

Setaria faberi (SETFA) [11] = test: as above; details: Setaria faberi, 312 h, rate 1,000 g/ha, read-out: Percentage damage caused to weed species, post-emergence, SETFA
Procedure, shortened: as §2

Solanum nigrum (SOLNI) [12] = test: as above; details: Solanum nigrum, 312 h, rate 1,000 g/ha, read-out: Percentage damage caused to weed species, post-emergence, SOLNI
Procedure, shortened: as §2

Structure (SMILES)	pest or weed control at 1000 g/ha [1] [%]	pest or weed control at 1000 g/ha [2] [%]	pest or weed control at 1000 g/ha [3] [%]	pest or weed control at 1000 g/ha [4] [%]	pest or weed control at 1000 g/ha (Setaria faberi (SETFA) [5]) [%]	pest or weed control at 1000 g/ha (Solanum nigrum (SOLNI) [6]) [%]	pest or weed control at 1000 g/ha [7] [%]	pest or weed control at 1000 g/ha [8] [%]	pest or weed control at 1000 g/ha [9] [%]	pest or weed control at 1000 g/ha [10] [%]	pest or weed control at 1000 g/ha (Setaria faberi (SETFA) [11]) [%]	pest or weed control at 1000 g/ha (Solanum nigrum (SOLNI) [12]) [%]
COc1c(Cl)ccc(-c2nc(C(=O)O)c3c(C)cn(Cc4ccc(C(F)(F)F)o4)c3n2)c1F [Compound 12-63, 4-Carboxy-2-(4-chloro-2-fluoro-3-methoxyphenyl)-7-(5-trifluoromethyl-furan-2-yl-methyl)-5-methyl-7H-pyrrolo[2,3-d]pyrimidine]	0	60	0	10	20	0	0	30	0	50	0	70
COC(=O)c1nc(-c2ccc(Cl)c(OC)c2F)nc2c1c(C)cn2Cc1ccc(C(F)(F)F)o1 [Compound 12-64]	0	0	0	0	0	0	10	20	10	50	30	30
O=C(O)c1nc(-c2ccc(Cl)c(F)c2)nc2c1ccn2Cc1ncccc1Cl [Compound 14-17, 4-Carboxy-2-(4-chloro-3-fluorophenyl)-7-(3-chloropyrid-2-yl-methyl)-7H-pyrrolo[2,3-d]pyrimidine]	0	0	0	0	0	0	0	0	0	10	0	40
COC(=O)c1nc(-c2ccc(Cl)c(OC)c2F)nc2c1c(C)cn2C(=O)C(C)(C)C [Compound 16-64, 7-t-Butylcarbonyl-2-(4-chloro-2-fluoro-3-methoxyphenyl)-4-methoxycarbonyl-5-methyl-7H-pyrrolo[2,3-d]pyrimidine]	0	0	0	0	0	0	0	10	0	70	0	60
COC(=O)c1nc(-c2ccc(Cl)c(OC)c2F)nc2c1c(C)cn2C(=O)OC [Compound 17-64, 2-(4-Chloro-2-fluoro-3-methoxyphenyl)-4,7-di(methoxycarbonyl)-5-methyl-7H-pyrrolo[2,3-d]pyrimidine]	0	0	0	0	0	0	0	0	0	0	0	20
COC(=O)c1nc(-c2ccc(Cl)c(OC)c2F)nc2c1c(C)cn2S(C)(=O)=O [Compound 18-64, 2-(4-chloro-2-fluoro-3-methoxyphenyl)-4-methoxycarbonyl-5-methyl-7-methylsulphonyl-7H-pyrrolo[2,3-d]pyrimidine]	0	0	0	0	0	0	10	20	10	40	30	40
COc1c(Cl)ccc(-c2nc(C(=O)O)c3c(C)cn(S(=O)(=O)c4ccc(C)cc4)c3n2)c1F [Compound 19-63, 4-Carboxy-2-(4-chloro-2-fluoro-3-methoxyphenyl)-5-methyl-7-(4-methylphenyl-sulphonyl)-7H-pyrrolo[2,3-d]pyrimidine]	0	0	0	0	0	0	0	50	0	60	0	70
COC(=O)c1nc(-c2ccc(Cl)c(OC)c2F)nc2scc(C)c12 [Compound 21-64, 2-(4-Chloro-2-fluoro-3-methoxyphenyl)-4-methoxycarbonyl-5-methyl-thieno[2,3-d]pyrimidine]	0	0	0	0	0	0	0	80	10	40	0	70
COC(=O)c1nc(-c2ccc(Cl)c(F)c2)cc2[nH]cc(C)c12 [Compound 22-20, 6-(4-Chloro-3-fluorophenyl)-4-methoxycarbonyl-3-methyl-1H-pyrrolo[3,2-c]pyridine]	20	100	20	80	0	60	50	100	70	70	60	80
COC(=O)c1nc(-c2ccc(Cl)c(OC)c2F)cc2[nH]ccc12 [Compound 22-62, 6-(4-Chloro-2-fluoro-3-methoxyphenyl)-4-methoxycarbonyl-1H-pyrrolo[3,2-c]pyridine]	0	20	0	50	0	20	0	80	50	60	20	70
